# Results: patent publication US20070275366A1, “Regulation of Sperm Function” (priority 2003, published 2007)
# Columns and labels:
# [1] = tested on: frozen-thawed spermatozoa (Bull semen samples); experiment: Sperm motility by microscopy on heated stage (percentage of motile spermatozoa with linear progressive movement); format: cell-based; details: for increase in sperm motility compared to fibronectin alone / increase in sperm motility compared to the RGD plus fibronectin sample: Angiotensin II 10^−9 moles/L added to fibronectin plus RGDS sample
# Procedure: Each sperm sample was packed and frozen in 0.25 ml plastic straws. The frozen spermatozoa straw (0.25 ml) was rapidly thawed by plunging it into a 37° C. water bath. When the sample was thawed, the straw was dried with a tissue, kept horizontal and cut both ends into a pre-warmed TALP medium.
# Spermatozoa were washed twice by TALP medium and centrifugation at 600×g for 10 minutes, then re-suspended with TALP pre-warmed to 37° C. The motility of the frozen-thawed spermatozoa was assessed at 37° C. using thermal plates. Sperm motility and morphology was estimated by microscopical observation on a warm 37° C. stage. Semen (10 μl) was covered by a cover glass (18 mm×18 mm) and at least 5 microscopic fields were examined. Motility was expressed as the percentage of motile spermatozoa with linear progressive movement in the sample (see Vinson, G. P., Puddefoot, J. R., Ho, M. M., Barker, S., Mehta, J., Saridogan, E. and Djahanbakhch, O. (1995). “Type 1 angiotensin II (AT1) receptors in sperm”, Journal Of Endocrinology, 144, 369-378). The prepared sperm sample were incubated with additives at 37° C. in a water bath as described in each example, and assayed for motility as before.
# All incubations were carried out at 37° C., using water bath and heated stage. Semen samples (10 μl) were applied to preheated (37° C.) slides and placed on the microscope heated stage and examined. The number of motile sperm were counted in the control sample at zero time, and in the treated samples after the incubation times indicated.
# [2] = tested on: sperm from volunteers and patients attending fertility clinics; details: background statement, cited from earlier work
# [3] = tested on: sperm; experiment: Sperm viability, carboxyfluorescein diacetate / propidium iodide live-dead stain; format: cell-based; details: Example 7; fibronectin 5 μg/ml, stored at room temperature, after 3 days; untreated control 75% to 18%
# Procedure: Stock solutions: carboxyfluorescein diacetate (0.46 mg/ml in dimethyl sulphoxide), propidium iodide (0.5 mg/ml isotonic saline), formaldehyde (10 μl formalin to 150 μl distilled water). Fluorescence stain: 50 μl carboxyfluorescein and 50 μl of propidium iodide to 2 ml sperm extender, plus 100 μl formaldehyde.
# Semen were diluted with stain (1:1) dilution and incubated at room temperature […] for 15 min. Samples washed with extender, and examined for live and dead sperm.
# [4] = tested on: bull spermatozoa; experiment: Chlortetracycline (CTC) fluorescence assay of capacitation state; format: cell-based; details: Example 6
# Source text: An alternative method of assessing capacitation is by using the CTC assay (DasGupta S, Mills C L, Fraser L R. Ca(2+)-related changes in the capacitation state of human spermatozoa assessed by a chlortetracycline fluorescence assay. J Reprod Fertil. 1993 September; 99(1):135-43.; Fraser L R, Herod J E. Expression of capacitation-dependent changes in chlortetracycline fluorescence patterns in mouse spermatozoa requires a suitable glycolysable substrate. J Reprod Fertil. 1990 March; 88(2):611-21). In this method, used in Example 6 below, patterns of staining distinguish non-capacitated, capacitated and acrosome reacted sperm. Chlortetracycline (CTC) solution: CTC (750 μM CTC in Tris (20 mM)-NaCl (130 mM), DL-cysteine (5 mM), buffer (20 mM Tris/130 mM NaCl, pH 7.8). Spermatozoa samples were obtained from healthy bulls (Semex, UK). All semen samples used in this study had been frozen and thawed. Each sample was packed in 0.25 ml plastic straws. The frozen spermatozoa straw (0.25 ml) was rapidly thawed by plunging it into a 37° C. water bath. When the sample was thawed, the straw was dried with a tissue, kept horizontal and cut both ends into a pre-warmed TALP medium. Spermatozoa were washed twice by TALP medium and centrifugation at 600 g for 10 minutes, then re-suspended with TALP pre-warmed to 37° C. Spermatozoa were incubated without additives, or with either angiotensin II (10^−9 moles per litre), fibronectin (5-50 μg/ml), or with both. Treated samples (45 μl) were aliquoted into foil wrapped eppendorf tubes with CTC solution (45 μl) and fixed with 12.5% paraformaldehyde, prior to viewing by […]. Three patterns of chlortetracycline fluorescent staining may be observed on bull spermatozoa: F (uncapacitated)-pattern, bright fluorescence was detected over the whole region of the sperm head; B (capacitated)-pattern, fluorescence was detected on the sperm head but not on the postacrosomal region; AR (acrosome-reacted)-pattern, weak fluorescence was observed over the sperm head, and a bright band was sometimes observed in the equatorial region.
# [5] = Example 3, fibronectin 2 μg/l added to sperm pre-incubated with RGDS, incubation of 5-10 minutes
molecule,measurement,setting,value
"laminin: extracellular matrix protein (250 μg/ml, Sigma)",change in total sperm motility,"[1]; Example 5, laminin 2 μg/l, 10 min, 37° C.",significant decrease
Arg-Gly-Asp-Ser (RGDS; printed: Arg-Gly-Asp-Ser) [commercially available tetrapeptide used as a source of RGD],decrease in sperm motility,"[1]; Example 3, pre-incubation with RGDS 5×10^6 moles/L for 5 min, control 62% at time zero",19%
CCCCc1nc(Cl)c(CO)n1Cc1ccc(-c2ccccc2-c2nn[nH]n2)cc1 [losartan],effect on the action of angiotensin II on the percentage of motile sperm,[2]; specific AT1 receptor antagonist,inhibits the action of angiotensin II on the percentage of motile sperm
fibronectin,sperm motility,"[1]; Example 1, fibronectin 2 μg/l, incubation of 5-10 minutes, 37° C., control 70% at time zero",14%
same,sperm motility,"[1]; Example 2, fibronectin 2 μg/l, incubation of 5-10 minutes, control 79% at time zero",8%
same,decrease of motility compared to the RGD treated sample,[1]; [5],28%
same,decrease of motility compared to the control,[1]; [5],47%
same,sperm remaining viable (living sperm),[3],48%
same,patterns of sperm staining (CTC),[4]; fibronectin 5 μg/ml,very similar to the untreated controls
"Angiotensin II (DRVYIHPF; Angiotensin-2; UniProt P01019 25-32, looked up) [peptide used as capacitating agent]",increase in sperm motility compared to fibronectin alone,[1]; Example 1,71%
same,increase in sperm motility compared to the RGD plus fibronectin sample,[1]; Example 1,62%
same,increase in sperm motility compared to fibronectin alone,"[1]; Example 1, 10 minutes",43%
same,increase in sperm motility compared to the RGD plus fibronectin sample,"[1]; Example 1, 10 minutes",34%
same,increase in sperm motility compared to fibronectin alone,"[1]; Example 1, 20 minutes",64%
same,increase in sperm motility compared to the RGD plus fibronectin sample,"[1]; Example 1, 20 minutes",55%
same,sperm motility,"[1]; Example 2, Angiotensin II 10^−9 moles/L added to fibronectin (2 μg/l) sample, 10 minutes",64%
same,sperm motility,"[1]; Example 2, Angiotensin II 10^−9 moles/L added to fibronectin (2 μg/l) sample, 20 minutes",62%
same,sperm motility,"[1]; Example 2, Angiotensin II 10^−9 moles/L added to fibronectin (2 μg/l) sample, 3040 minutes",62%
same,sperm motility,"[1]; Example 3, Angiotensin II 10^−9 moles/L added to fibronectin+RGDS sample, 10 minutes",43%
same,sperm motility,"[1]; Example 3, Angiotensin II 10^−9 moles/L added to fibronectin+RGDS sample, 20 minutes",54%
same,sperm motility,"[1]; Example 3, Angiotensin II 10^−9 moles/L added to fibronectin+RGDS sample, 3040 minutes",54%
same,change in sperm motility,"[1]; Example 4, Angiotensin II 10^−9 moles/L added to vitronectin sample, 5 to 35 minutes",significant increase
same,change in sperm motility,"[1]; Example 5, Angiotensin II 10^−9 moles/L added to laminin sample, 10 to 40 minutes",significant increase
same,effect on percentage of motile sperm and linear velocity,[2],may increase both the percentage of motile sperm and their linear velocity
same,capacitated sperm (B pattern),"[4]; angiotensin II only (10^−9 moles per litre), 60 min incubation",45%
same,uncapacitated sperm (F pattern),"[4]; angiotensin II only (10^−9 moles per litre), 60 min incubation, control about 60%, 55% by 30 min",~18%
"vitronectin: extracellular matrix protein (250 μg/ml, Sigma) (protein, UniProt P04004 20-478, looked up) Vitronectin: DQESCKGRCTEGFNVDKKCQCDELCSYYQSCCTDYTAECKPQVTRGDVFTMPEDEYTVYDDGEEKNNATVHEQVGGPSLTSDLQAQSKGNPEQTPVLKPEEEAPAPEVGASKPEGIDSRPETLHPGRPQPPAEEELCSGKPFDAFTDLKNGSLFAFRGQYCYELDEKAVRPGYPKLIRDVWGIEGPIDAAFTRINCQGKTYLFKGSQYWRFEDGVLDPDYPRNISDGFDGIPDNVDAALALPAHSYSGRERVYFFKGKQYWEYQFQHQPSQEECEGSSLSAVFEHFAMMQRDSWEDIFELLFWGRTSAGTRQPQFISRDWHGVPGQVDAAMAGRIYISGMAPRPSLAKKQRFRHRNRKGYRSQRGHSRGRNQNSRRPSRATWLSLFSSEESNLGANNYDDYRMDWLVPATCEPIQSVFFFSGDKYYRVNLRTRRVDTVDPPYPRSIAQYWLGCPAPGHL",change in total sperm motility,"[1]; Example 4, vitronectin 2 μg/l, 5 minutes, 37° C.",highly significant decrease
